No end group written: not given here.
Assays:
[1] = tested on: C72 murine anti-DNA antibody; assay: Anti-peptide direct binding ELISA with C72; details: for binding of C72 murine anti-DNA antibody to laminin peptides (FIG. 1): ELISA, C72 conditioned medium in various dilutions; for C72 Binding: direct binding ELISA, footnote: O.D. after one (1) hour
Procedure: (§1) Wells were coated with 10 μg/ml of the peptides, blocked with 1% BSA (bovine serum albumin) in PBS (pH 7.4), reacted with appropriately diluted plasma or monoclonal antibodies, incubated with anti-human or anti-mouse immunoglobulin enzyme conjugated to alkaline phosphatase and detected by addition of substrate (Sigma 100 Phosphatase Substrate Tablets) and color development using an Organon Teknika Microwell System spectrometer at wavelength of 405 nm.
The interaction of the C72 murine anti-DNA antibody with laminin peptides was analyzed by ELISA as described above. The C72 conditioned medium was diluted in PBS in various dilutions.
(§2) The peptides of the present invention were tested for their ability to bind directly with C72 murine anti-DNA antibodies and B3 human anti-DNA antibodies according to the method described hereinabove.

[2] = tested on: B3 human anti-DNA antibodies; assay: Anti-peptide direct binding ELISA with B3; details: direct binding ELISA; footnote: O.D. after two (2) hours
Procedure: as §1
The human monoclonal anti-DNA antibodies DIL 6 and B3 were derived from lupus patients by the hybridoma technique. […] In FIGS. 3 and 4, the peptides are referred to as denoted above or as follows; AS30 is R27, AS19 is R35, AS35 is R26, AS17 is R28 and AS6 is R18.
as §2

C72 anti-DNA antibody = assay: Competitive inhibition of C72 binding to R38 (5100); design: species or system murine; details: concentration of competitive inhibitor giving 50% inhibition, ELISA
Description: A competitive inhibition study compared how each of the peptides competes with R38 (5100) for binding to the C72 anti-DNA antibody. Conducted according to the methods described hereinabove, the results of the study are disclosed in Table 4 below and are further elucidated by reference to FIG. 10.

[3] = tested on: urine antibodies of lupus patients; assay: Urine anti-peptide antibody ELISA in patients; assay type: binding, human
[4] = tested on: MRL/1pr/1pr urine antibodies; assay: Binding of murine urinary immunoglobulins, MRL/1pr/1pr urine; design: species or system mice; details: pooled urine of MRL/1pr/1pr mice
Procedure: as §1
(§3) Thus, pooled urine from at least 5 mice (either MRL/1pr/1pr or control mice, e.g. BALB/c) was added to wells coated with R38′ (5200), R18 or DNA as described above and bound 5200 assayed by ELISA.
(§4) Each group is comprised of pooled urine.

[5] = tested on: BALB/c urinary immunoglobulins; assay: Binding of murine urinary immunoglobulins, BALB/c control urine; details: pooled urine of BALB/c control mice
Procedure: as §1, §3, §4

[6] = tested on: C72 murine anti-DNA antibody; assay: Competitive inhibition of the binding of C72 to 5200; details: after incubation of C72 with the inhibiting agent
Procedure: The binding of C72 to 5200 was tested before and after incubation with 5200, R38, R18, Heparin, DNA and DNase. […] The percent inhibition is the percent reduction of the O.D. after incubation with the inhibiting agent.

[7] = biological target: C72 murine anti-DNA antibody; assay: competitive inhibition ELISA: peptide in solution against binding of C72 to coated 5100

| Molecule | C72 Binding [1] [O.D.] | B3 Binding [2] [O.D.] | IC50 [7] [µg/mL] | other results |
| --- | --- | --- | --- | --- |
| KATPMLKMRTSFHGCIK [Peptide R37, laminin derived peptide, residues 2615-2631] | 1.8 |  |  | binding of C72 murine anti-DNA antibody to laminin peptides (FIG. 1) [1]: binding |
| KEGYKVRLDLNITLEF [Peptide 5101] | 1.11 | 0.1 |  | 50% Inhibition of C72 binding to mouse R38 (5100) (C72 anti-DNA antibody): 5 µg/mL |
| DGKWHTVKTEYIKRKAF [Peptide R28, laminin derived peptide, residues 2779-2795] | 0.01 |  |  |  |
| KAGYKVRLALNITLAFRTTSK [Peptide 5108] | 2.75 | 1.93 |  | 50% Inhibition of C72 binding to mouse R38 (5100) (C72 anti-DNA antibody): 2 µg/mL; Urine anti-5108 O.D. (Mean + S.E.) ([3]; Example 9, renal disease absent, 2 samples): 0.064 ± 0.05 O.D.; Urine anti-5108 O.D. (Mean + S.E.) ([3]; Example 9, renal disease present, 22 samples): 0.672 ± 0.1 O.D. |
| VQSDVNITLEFR [Peptide 5111] | 0.01 | 0.01 |  |  |
| VRLDLNITLEFR [Peptide 5102] | 0.1 | 0.02 |  | 50% Inhibition of C72 binding to mouse R38 (5100) (C72 anti-DNA antibody): 30 µg/mL |
| KEGYKVRLALNITLEFRTTSK [Peptide 5109] | 2.72 | 1.94 |  | 50% Inhibition of C72 binding to mouse R38 (5100) (C72 anti-DNA antibody): 0.7 µg/mL |
| KEGYKVQSDLNITLEFRTSSQ [Peptide 5300] | 0.03 | 0.03 |  | 50% Inhibition of C72 binding to mouse R38 (5100) (C72 anti-DNA antibody): 85 µg/mL |
| KEGYKVELDLNITLEFRTTSK [Peptide 5106] | 1.9 | 0.16 |  | 50% Inhibition of C72 binding to mouse R38 (5100) (C72 anti-DNA antibody): 2.5 µg/mL |
| RPVRHAQCRVCDGNSTNPRERH [Peptide R18, peptide from the N-terminal of mouse laminin alpha chain, residues 42-63, reference compound] | 0.01 |  |  | Binding of murine urinary immunoglobulins to antigen [4]: U.D.; Binding of murine urinary immunoglobulins to antigen [5]: U.D. |
| LDLNITEFRTTSK [Peptide 5103] | 0.03 | 0.02 |  |  |
| AEGYAVALDLNITLEFATTSA [Peptide 5104] | 0.06 | 0.02 |  |  |
| DNA |  |  |  | inhibition of the binding of C72 to 5200 (FIG. 2) [6]: inhibition; Binding of murine urinary immunoglobulins to antigen [4]: U.D.; Binding of murine urinary immunoglobulins to antigen [5]: U.D. |
| KQNCLSSRASFRGCVRNLRLSR [Peptide R30, laminin derived peptide, residues 3011-3032] | 0.75 |  |  | binding of C72 murine anti-DNA antibody to laminin peptides (FIG. 1) [1]: binding |
| heparin |  |  |  | inhibition of the binding of C72 to 5200 (FIG. 2) [6]: inhibition |
| KEGYKVRLDLNITLAFRTTSK [Peptide 5110] | 2.8 | 1.83 |  | 50% Inhibition of C72 binding to mouse R38 (5100) (C72 anti-DNA antibody): 0.7 µg/mL |
| CC[C@H](C)[C@H](NC(=O)[C@H](CC(N)=O)NC(=O)[C@H](CC(C)C)NC(=O)[C@H](CC(=O)O)NC(=O)[C@H](CC(C)C)NC(=O)[C@H](CCCNC(=N)N)NC(=O)[C@@H](NC(=O)[C@H](CCCCN)NC(=O)[C@H](Cc1ccc(O)cc1)NC(=O)CNC(=O)[C@H](CCC(=O)O)NC(=O)[C@@H](N)CCCCN)C(C)C)C(=O)N[C@H](C(=O)N[C@@H](CC(C)C)C(=O)N[C@@H](CCC(=O)O)C(=O)N[C@@H](Cc1ccccc1)C(=O)N[C@@H](CCC(=O)O)C(=O)N[C@H](C(=O)N[C@H](C(=O)N[C@@H](CO)C(=O)N[C@@H](CCCCN)C(=O)O)[C@@H](C)O)[C@@H](C)O)[C@@H](C)O [Peptide 5107] | 0.05 | 0.01 |  | 50% Inhibition of C72 binding to mouse R38 (5100) (C72 anti-DNA antibody): 85 µg/mL |
| KEGYKVELDLNITLEFETTSK [Peptide 5105] | 0.07 | 0.02 |  |  |
| KEGYKVRLDLNITLEF [5101 peptide (Res. 1-16 of 5100)] |  |  | 5 |  |
| KEGYKVRLDLNITLAFRTTSK [5110 peptide (Ala subst. of 5100 a.a. 15)] |  |  | 0.7 |  |
| KEGYKVRLDLNTTLEFRTTSK [5200 peptide (R38′), mouse R38 analog] |  |  | 10 |  |
| VRLDLNITLEFR [5102 peptide (Res. 6-17 of 5100)] |  |  | 30 |  |
| KEGYKVRLALNITLEFRTTSK [5109 peptide (Ala subst. of 5100 a.a. 9)] |  |  | 0.7 |  |
| KAGYKVRLALNITLAFRTTSK [5108 peptide (Ala subst. of 5100 at all negative a.a.)] |  |  | 2 |  |
| KEGYKVRLDLNITLEFETTSK [5107 peptide (charge subst. to neg. at 5100 a.a. 17)] |  |  | 85 |  |
| KEGYKVELDLNITLEFRTTSK [5106 peptide (charge subst. to neg. at 5100 a.a. 7)] |  |  | 2.5 |  |
| KEGYKVRLDLNITLEFRTTSK [R38 peptide (5100), mouse R38] |  |  | 10 |  |
| KEGYKVQSDVNITLEFRTSSQ [5300 peptide, human R38] |  |  | 85 |  |

From patent US20100285146A1, “PEPTIDES AND METHODS FOR THE TREATMENT OF SYSTEMIC LUPUS ERYTHEMATOSUS” (priority 2007, published 2010)
